Assay results published in patent US12350475B2 (SUN PHARMACEUTICAL INDUSTRIES LIMITED, priority 2020, dated 2025).
Structures can show the parent of a compound that is named as a salt.

Legend:
[1] = pharmacokinetics of octreotide after subcutaneous dosing in patients with acromegaly
Text: (§1) For patients with acromegaly, there may be a different pharmacokinetic profile.

[2] = distribution of octreotide in blood (erythrocytes, plasma binding)
Text: as §1

[3] = pharmacokinetics of octreotide after subcutaneous injection
Text: as §1

With `C[C@@H](O)[C@@H]1NC(=O)[C@H](CCCCN)NC(=O)[C@@H](Cc2c[nH]c3ccccc23)NC(=O)[C@H](Cc2ccccc2)NC(=O)[C@@H](NC(=O)[C@H](N)Cc2ccccc2)CSSC[C@@H](C(=O)N[C@H](CO)[C@@H](C)O)NC1=O` (relative stereo) [octreotide, L-cysteinamide, D-phenylalanyl-L-cysteinyl-L-phenylalanyl-D-tryptophyl-L-lysyl-L-threonyl-N-[2-hydroxy-1-(hydroxymethyl)propyl]-, cyclic (2#7)-disulfide; [R—(R*, R*)] acetate salt] the Vd ([1]; human, in vivo, subcutaneous) was about 21.6 L, the clearance ([1]; human, in vivo, subcutaneous) was about 300 mL/min and the “time to mean peak concentration after subcutaneous dosing” value ([1]; patients with acromegaly, 100 μg dose) was “about 0.7 hours”. For the same compound, the mean peak concentration ([1]; patients with acromegaly, subcutaneous, 100 μg dose) was “about 2.8 ng/mL”, the “bound in the plasma” value ([2]; concentration-independent manner) was “about 65%” and the “distribution into the erythrocytes” value ([2]; in blood) was “negligible”. For the same compound, the “absorption from the injection site” value ([3]; after subcutaneous injection) was “absorbed completely”, the Vd ([3]; human, plasma, subcutaneous) was about 13.6 L and the clearance ([3]; human, plasma, subcutaneous) was 117 to 167 mL/min. For the same compound, the “dose proportionality of peak concentrations and area under the curve values” ([3]; subcutaneous single doses up to 500 μg and multiple doses up to 500 μg three times a day (1,500 μg/day)) was “dose proportional”, the peak concentration ([3]; subcutaneous, dose of 100 μg) was “about 5.2 ng/mL” and the “time to peak concentration after dosing” value ([3]; subcutaneous, dose of 100 μg) was 0.4 h.
